# Measured values published in US11230538B2, “Herbicides” (SYNGENTA PARTICIPATIONS AG, priority 2016, dated 2022).
# Assays:
# Assay type in all cases: in vivo
# [1] = tested on: Echinochloa crus-galli (ECHCG); assay: B1 Pre-emergence herbicidal activity; parameters: key to Pre-emergence herbicidal activity, ECHCG (damage score 0-5): 5=total damage to plant; 0=no damage to plant; conditions: pre-emergence application, evaluated after 13 days
# Method in brief: (§1)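 Test species received a pre-emergence application one day post-sowing in an acetone/water solution with 0.5% Tween 20. Phytotoxicity was assessed 13 days later on a scale where 0 means no damage and 5 total plant death.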
# Setaria fabenr (SETFA) = assay: B1 Pre-emergence herbicidal activity; parameters: key to Pre-emergence herbicidal activity, SETFA (damage score 0-5): 5=total damage to plant; 0=no damage to plant; conditions: pre-emergence application, evaluated after 13 days
# Method in brief: as §1
# [2] = tested on: Triticum aestivium (TRZAW); assay: B2 Post-emergence herbicidal activity; parameters: key: 5=total damage to plant; 0=no damage to plant; conditions: post-emergence application, evaluated after 13 days
# Method in brief: (§2)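 Scores run from 0 for undamaged to 5 for fully killed plants, assessed 13 days post-spray. Application was post-emergence at 8 days of growth, using an acetone/water (50:50), 0.5% Tween 20 spray solution; growth at 24 °C day, 16 °C night, 65% humidity.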
# [3] = tested on: Alopecurus myosuroides (ALOMY); assay: B2 Post-emergence herbicidal activity; parameters: key: 5=total damage to plant; 0=no damage to plant; conditions: post-emergence application, evaluated after 13 days
# Method in brief: as §2
# Setaria fabenri (SETFA) = assay: B2 Post-emergence herbicidal activity; parameters: key: 5=total damage to plant; 0=no damage to plant; conditions: post-emergence application, evaluated after 13 days
# Method in brief: as §2
# Lolium perenne (LOLPE) [4] = assay: B1 Pre-emergence herbicidal activity; parameters: key to Pre-emergence herbicidal activity, LOLPE (damage score 0-5): 5=total damage to plant; 0=no damage to plant; conditions: pre-emergence application, evaluated after 13 days
# Method in brief: as §1
# [5] = tested on: Triticum aestivium (TRZAW); assay: B1 Pre-emergence herbicidal activity; parameters: key: 5=total damage to plant; 0=no damage to plant; conditions: pre-emergence application, evaluated after 13 days
# Method in brief: as §1
# Avena fatua (AVEFA) [6] = assay: B1 Pre-emergence herbicidal activity; parameters: key: 5=total damage to plant; 0=no damage to plant; conditions: pre-emergence application, evaluated after 13 days
# Method in brief: as §1
# [7] = tested on: Alopecurus myosuroides (ALOMY); assay: B1 Pre-emergence herbicidal activity; parameters: key: 5=total damage to plant; 0=no damage to plant; conditions: pre-emergence application, evaluated after 13 days
# Method in brief: as §1
# [8] = tested on: Echinochloa crus-galli (ECHCG); assay: B2 Post-emergence herbicidal activity; parameters: key to Post-emergence herbicidal activity, ECHCG (damage score 0-5): 5=total damage to plant; 0=no damage to plant; conditions: post-emergence application, evaluated after 13 days
# Method in brief: as §2
# Avena fatua (AVEFA) [9] = assay: B2 Post-emergence herbicidal activity; conditions: post-emergence application, evaluated after 13 days
# Experimental: (§3) Seeds of a variety of test species were sown in standard soil in pots: Triticum aestivium (TRZAW), Avena fatua (AVEFA), Alopecurus myosuroides (ALOMY), Echinochloa crus-galli (ECHCG), Lolium perenne (LOLPE), Zea Mays (ZEAMX), Abutilon theophrasti (ABUTH), Amaranthus retroflexus (AMARE) and Setaria fabenri (SETFA). After 8 days cultivation (post-emergence) under controlled conditions in a glasshouse (at 24/16° C., day/night; 14 hours light; 65% humidity), the plants were sprayed with an aqueous spray solution derived from the formulation of the technical active ingredient in acetone I water (50:50) solution containing 0.5% Tween 20 (polyoxyethelyene sorbitan monolaurate, CAS RN 9005-64-5). The test plants were then grown in a glasshouse under controlled conditions (at 24/16° C., day/night; 14 hours light; 65% humidity) and watered twice daily. After 13 days, the test was evaluated (5=total damage to plant; 0=no damage to plant).
# Lolium perenne (LOLPE) [10] = assay: B2 Post-emergence herbicidal activity; conditions: post-emergence application, evaluated after 13 days
# Experimental: as §3
SMILES,"Pre-emergence herbicidal activity, ECHCG (damage score 0-5) ([1]; rate 1000 g/ha)","Pre-emergence herbicidal activity, SETFA (damage score 0-5) (Setaria fabenr (SETFA); rate 1000 g/ha)","Post-emergence herbicidal activity, TRAZW (damage score 0-5) ([2]; rate 1000 g/ha)","Post-emergence herbicidal activity, ALOMY (damage score 0-5) ([3]; rate 1000 g/ha)","Post-emergence herbicidal activity, SETFA (damage score 0-5) (Setaria fabenri (SETFA); rate 1000 g/ha)","Pre-emergence herbicidal activity, LOLPE (damage score 0-5) (Lolium perenne (LOLPE) [4]; rate 1000 g/ha)","Pre-emergence herbicidal activity, TRAZW (damage score 0-5) ([5]; rate 1000 g/ha)","Pre-emergence herbicidal activity, AVEFA (damage score 0-5) (Avena fatua (AVEFA) [6]; rate 1000 g/ha)","Pre-emergence herbicidal activity, ALOMY (damage score 0-5) ([7]; rate 1000 g/ha)","Post-emergence herbicidal activity, ECHCG (damage score 0-5) ([8]; rate 1000 g/ha)","Post-emergence herbicidal activity, AVEFA (damage score 0-5) (Avena fatua (AVEFA) [9]; rate 1000 g/ha)","Post-emergence herbicidal activity, LOLPE (damage score 0-5) (Lolium perenne (LOLPE) [10]; rate 1000 g/ha)",further results
O=C(Nc1ccc(-c2cncc(F)c2)nc1C(F)(F)F)C(Cl)Cl [Compound C26],5,5,1,0,5,1,0,2,0,5,4,4,
Cc1nc(-c2cncc(F)c2)ccc1N(C(=O)C(C)C)C(=O)C(C)C [Compound C1],5,5,1,1,5,1,1,2,0,5,3,4,
COCC(=O)Nc1ccc(-c2cncc(F)c2)nc1C(F)(F)F [Compound C27],5,5,1,1,5,1,0,3,0,5,4,3,
CC(C)C(=O)Nc1ccc(-c2cncc(C#N)c2)nc1C(F)(F)F [Compound C11],1,4,0,1,5,1,0,0,0,3,2,1,
"Cc1nc(-c2cncnc2)ccc1NC(=O)C(C)C [Compound C2, 2-methyl-N-(2-methyl-6-pyrimidin-5-yl-3-pyridyl)propanamide]",3,5,1,1,5,1,0,0,0,5,3,2,
CC(C)C(=O)N(c1ccc(-c2cncc(F)c2)nc1C(F)(F)F)C(C)C [Compound C90],2,2,1,0,4,0,0,0,0,4,2,1,
CC(C)C(=O)Nc1ccc(-c2cncc(Cl)c2)nc1C(F)(F)F [Compound C12],2,4,0,1,5,1,0,0,0,5,3,2,
"CCC(=O)N(C(C)=O)c1ccc(-c2cncc(F)c2)nc1C(F)(F)F [Compound C121, N-acetyl-N-[6-(5-fluoro-3-pyridyl)-2-(trifluoromethyl)-3-pyridyl]propanamide]",,,,,,,,,,,,,"Pre-emergence herbicidal activity, ECHCG (damage score 0-5) ([1]; rate 250 g/ha): 3; Pre-emergence herbicidal activity, SETFA (damage score 0-5) (Setaria fabenr (SETFA); rate 250 g/ha): 5; Post-emergence herbicidal activity, TRAZW (damage score 0-5) ([2]; rate 250 g/ha): 1; Post-emergence herbicidal activity, ALOMY (damage score 0-5) ([3]; rate 250 g/ha): 1; Post-emergence herbicidal activity, SETFA (damage score 0-5) (Setaria fabenri (SETFA); rate 250 g/ha): 5; Pre-emergence herbicidal activity, LOLPE (damage score 0-5) (Lolium perenne (LOLPE) [4]; rate 250 g/ha): 1; Pre-emergence herbicidal activity, TRAZW (damage score 0-5) ([5]; rate 250 g/ha): 0; Pre-emergence herbicidal activity, AVEFA (damage score 0-5) (Avena fatua (AVEFA) [6]; rate 250 g/ha): 2; Pre-emergence herbicidal activity, ALOMY (damage score 0-5) ([7]; rate 250 g/ha): 0; Post-emergence herbicidal activity, ECHCG (damage score 0-5) ([8]; rate 250 g/ha): 4; Post-emergence herbicidal activity, AVEFA (damage score 0-5) (Avena fatua (AVEFA) [9]; rate 250 g/ha): 4; Post-emergence herbicidal activity, LOLPE (damage score 0-5) (Lolium perenne (LOLPE) [10]; rate 250 g/ha): 3"
CCC(=O)N(Cc1ccncc1)c1ccc(-c2cncc(F)c2)nc1C(F)(F)F [Compound C70],2,2,0,0,3,1,0,1,0,2,2,1,
